In PMC11235159, “Targeting a microbiota Wolbachian aminoacyl-tRNA synthetase to block its pathogenic host” (Science Advances, 2024):
Like-named read-outs stand apart in the source and are kept apart here.

Tests used:
[1] = system: W. pipientis (wAlbB) in C6/36 cells; assay: A·WOL anti-Wolbachia screening assay in infected C6/36 (wAlbB) insect cells; type: cell-based, Wolbachia pipientis; details: for EC50: Wolbachia pipientis, 168 h, 7 days
From the text: To identify active compounds against Wolbachia, we carried out a high-throughput screening assay by testing a library of 202 benzoxaborole compounds in a host-cell model of Wolbachia infection ([5], [18]), which yielded an 18% hit rate. […] The screening in cells was combined with activity experiments (aminoacylation) performed with recombinant full-length Wolbachia LeuRS protein, which were used to calculate the half-maximum inhibitory concentration (IC50) for the most interesting compounds identified in the cell screening. Thus, this yielded compounds with both good anti-Wolbachian in vitro activity and in vivo efficacy, with representative compounds shown in table S1. […] Moreover, the potent in vitro activity of Cmpd9 translated in very good in cellulo efficacy (EC50 = 90 nM) in the Wolbachia infection model (Fig. 1, D and E, and table S1).
The efficacy of compounds, determined as EC50 against Wolbachia in infected host cells, was determined through the anti-Wolbachia consortium’s (A·WOL) routine screening assay as described previously ([18], [27], [29]). […] Compounds were incubated for 7 days with 2000 cells per well on a 384-well plate (CellCarrier-384 Ultra, PerkinElmer) in Leibovitz media (Life Technologies) supplemented with 20% fetal bovine serum (FBS, Thermo Fisher Scientific), 2% tryptose phosphate broth (Sigma-Aldrich), and 1% nonessential amino acids (Sigma-Aldrich). The endpoint readout utilized DNA staining of both the host cell nuclei and intracellular Wolbachia (SYTO 11) combined with a high content imaging system (Operetta, PerkinElmer) and analyzed using the associated Harmony software through a cytoplasm texture analysis. Stock solutions at 10 mM of chemical compounds were prepared in dimethyl sulfoxide (DMSO). Chemical compounds were provided by chemical manufactures (ChemPartner and Anacor Pharmaceuticals), and quality control was verified by NMR spectroscopy (^1H-NMR) and liquid chromatography coupled to mass spectrometry. […]
†The half-maximum effective concentrations (EC50) were calculated in cells infected with Wolbachia […]

[2] = molecular target: Wolbachia LeuRS (Wolbachia sp. subsp. Brugia malayi, UniProt Q5GS31); details: ITC; for binding to Wolbachia LeuRS (in words): in the absence of AMP; for -T∆S / ∆G / ∆H: in the presence of AMP
From the text: We designed constructs of the Wolbachia LeuRS editing domain (fig. S1), which bear the putative drug-binding pocket, for expression and purification of recombinant proteins. Two constructs gave soluble and well-behaving proteins that were used for biophysical and structural studies: a construct encoding for residues 219 to 418, herein named Wolbachia LeuRS; and another construct named Wolbachia LeuRS D1, for which part of an insertion specific to Wolbachia LeuRS (herein denoted as i1) and predicted to be highly disordered was partially deleted (354 to 377) (fig. S1). […] To quantitatively assess the affinity of these compounds to Wolbachia LeuRS, isothermal titration calorimetry (ITC) experiments were carried out.
ITC measurements were performed on a MicroCal iTC200 (GE Healthcare, PA) at 25°C. Wolbachia LeuRS samples were previously dialyzed into the ITC buffer 50 mM Hepes-KOH, pH 7.5, 30 mM KCl, 30 mM MgCl2, and 5 mM β-mercaptoethanol and adjusted to a final concentration of 70 μM. […] A typical ITC experiment consisted of 26 injections of 1.5 μl every 180 s at a stirring speed of 750 rpm. The raw data were processed using MicroCal PEAQ-ITC (v. 1.0.0.1259, Malvern) and Microcal Origin for ITC (v. 7.0).
Thermodynamic parameters were calculated from fitting the binding isotherms to a one-site binding site and
independent model. Experiments were done at least in duplicates.
All the experiments were performed in the presence of AMP, which acts as a surrogate of ATP or tRNALeu
terminal adenosine (Ade76).

[3] = molecular target: T1, Wolbachia LeuRS (full-length) (Wolbachia sp. subsp. Brugia malayi, UniProt Q5GS31); assay: biochemical
Description: The full-length Wolbachia LeuRS construct corresponds to residues 1 to 865 of Wolbachia sp. Brugia malayi (Uniprot Q5GS31).
The IC50 values were calculated using a similar approach as described earlier ([19], [20]). Briefly, Wolbachia full-length LeuRS, total E. coli tRNA crude extract (Roche), and compounds were preincubated for 20 min in 50 mM Hepes-KOH (pH 8.0), 30 mM MgCl2, 30 mM KCl, 0.02% (wt/vol) bovine serum albumin, and 1 mM dithiothreitol with 20 μM [^14C]leucine (306 mCi/mmol; PerkinElmer) at 30°C. Reactions were started by the addition of 4 mM ATP and, at specific times, tRNA was precipitated by the addition of 10% (w/v) trichloroacetic acid (TCA), recovered by filtration (Millipore Multiscreen; MSHAN4B50), washed with 5% TCA (w/v), and counted by a liquid scintillation counter (Wallac). […] The reactivation rates (T½) were determined by measuring the time required for Wolbachia LeuRS to recover 50% of its activity. […] LeuRS inhibitor complexes were then diluted 200-fold, and enzyme activity was determined at various time intervals, as described before. Compound reactivation rates were determined by fitting the LeuRS activity reactivation curves to a one-phase exponential decay model (GraphPad Prism).
*The half-maximum inhibitory concentrations (IC50) and half-life inhibition times (T ½) were calculated from aminoacylation assays with recombinant protein and tRNA (see methods). […]

[4] = ITC titration of compound into AMP in the absence of protein (adduct formation); type: binding; details: no protein
Description: To quantitatively assess the formation of the adenosine-based inhibitor adducts, we performed ITC experiments by titrating Cmpd9 into AMP in the absence of protein (fig. S3D). […]
spectra of AMP/ATP alone or in equimolar (5 mM) mixtures with Cmpd6. A zoomed-in view on the aromatic NMR signals of AMP/ATP is shown. Upon addition of the compounds, the NMR signals of the aromatic groups of AMP/ATP split into an additional two peaks corresponding to the two adducts formed. (C) Spontaneous cyclization of Cmpd6 with ATP/AMP leading to the formation of two diastereomer adducts based on the pseudo symmetry of the ribose. For convenience, adducts with an exo-ribose in panel c) are denote as ty pe “a”, and those with endo-ribose as adducts of type “b”. (D) Isothermal Titration Calorimetry experiment with Cmpd9 injected into AMP leading to the formation of adducts by Cmpd9.
The experiment was performed in triplicate.

[5] = molecular target: Wolbachia LeuRS (residues 219 to 418) (Wolbachia sp. subsp. Brugia malayi, UniProt Q5GS31); assay: Thermal shift assay (DSF), Wolbachia LeuRS editing domain; type: binding; details: wild-type Wolbachia LeuRS construct, in the presence of AMP, vs free protein
Description: The thermal shift assays (TSAs) were performed using a qPCR CFX96 (Bio-Rad) with the FRET scan mode. Samples were prepared in a TSA buffer containing 50 mM Hepes (pH 7.5) and 150 mM NaCl. Each well contained 2 μl of samples as prepared for the crystallization trials, 18 μl of TSA buffer, and 20 μl of 10× SYPRO orange (S6650, Thermo Fisher Scientific).

[6] = molecular target: T1, Wolbachia LeuRS (full-length); assay: Reactivation rate (half-life of inhibition) of Wolbachia LeuRS after dilution of inhibitor complex; type: biochemical; details: time for LeuRS to recover 50% of its activity after 200-fold dilution
Description: Wolbachianinfection model.
All reactions were performed in […]

Sequence of Wolbachia LeuRS (Q5GS31 219-418): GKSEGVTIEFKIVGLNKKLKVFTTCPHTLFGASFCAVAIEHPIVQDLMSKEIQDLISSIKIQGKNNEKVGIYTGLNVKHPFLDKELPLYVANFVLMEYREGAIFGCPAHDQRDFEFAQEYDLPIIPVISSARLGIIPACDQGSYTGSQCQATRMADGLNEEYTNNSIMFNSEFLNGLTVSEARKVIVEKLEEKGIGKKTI
T1 sequence (Q5GS31 whole entry): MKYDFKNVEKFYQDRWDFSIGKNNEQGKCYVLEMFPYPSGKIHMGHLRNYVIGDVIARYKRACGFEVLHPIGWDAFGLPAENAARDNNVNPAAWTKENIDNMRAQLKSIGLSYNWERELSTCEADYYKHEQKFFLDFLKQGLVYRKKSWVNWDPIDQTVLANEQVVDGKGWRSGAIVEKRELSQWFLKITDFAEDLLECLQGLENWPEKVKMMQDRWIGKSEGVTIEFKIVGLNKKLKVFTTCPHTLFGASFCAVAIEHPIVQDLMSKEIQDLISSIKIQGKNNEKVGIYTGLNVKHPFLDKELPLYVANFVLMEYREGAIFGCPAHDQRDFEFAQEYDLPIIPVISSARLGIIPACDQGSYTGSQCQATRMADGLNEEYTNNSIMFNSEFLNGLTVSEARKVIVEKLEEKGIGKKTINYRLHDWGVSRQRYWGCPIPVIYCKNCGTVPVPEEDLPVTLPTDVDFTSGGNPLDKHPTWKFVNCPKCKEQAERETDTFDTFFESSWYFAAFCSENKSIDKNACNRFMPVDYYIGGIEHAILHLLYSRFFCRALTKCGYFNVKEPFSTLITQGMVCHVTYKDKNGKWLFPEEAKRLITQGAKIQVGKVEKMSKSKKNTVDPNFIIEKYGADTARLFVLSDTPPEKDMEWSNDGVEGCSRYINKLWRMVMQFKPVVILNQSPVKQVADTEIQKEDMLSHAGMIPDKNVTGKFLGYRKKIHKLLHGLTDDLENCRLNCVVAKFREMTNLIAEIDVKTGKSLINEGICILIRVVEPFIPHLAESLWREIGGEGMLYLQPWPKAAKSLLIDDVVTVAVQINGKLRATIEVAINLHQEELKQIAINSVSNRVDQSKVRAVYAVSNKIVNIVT
Sequence of Wolbachia LeuRS (residues 219 to 418) (Q5GS31 219-418): as the sequence (Q5GS31 219-418) above

SMILES | EC50 ([1]; C6/36 (wAlbB) cells, read-out: Efficacy in Infected Host EC50) | binding to Wolbachia LeuRS (in words) [2] | -T∆S [2] | ∆G [2] | ∆H [2] | IC50 [3] | binding isotherm with AMP (in words) ([4]; compared with Cmpd9 into AMP) | increase of the melting temperature ∆Tm [5] | T ½ (half-life inhibition time, reactivation rate) [6] | Wolbachia load in host cells (in words) ([1]; 9 μM for 7 days, C6/36 (wAlbB)) | EC50 ([1]; Wolbachia infection model, C6/36 (wAlbB), read-out: in cellulo efficacy EC50) | Kd ([4]; compound titrated into AMP, one-site binding model)
NC[C@H]1OB(O)c2c(OCCC(=O)Nc3nccs3)ccc(Br)c21 [Cmpd6] | > 10 µM | did not bind | -4.48 kcal/mol | -10.08 kcal/mol | -5.60 kcal/mol | 0.06 µM | equivalent binding isotherm | 13 °C | 0.0183 h | – | – | –
CN(CCCOc1ccc(Br)c2c1B(O)O[C@@H]2CN)Cc1ccccc1 [Cmpd9] | – | did not bind | -5.31 kcal/mol | -11.24 kcal/mol | -5.93 kcal/mol | 0.19 µM | – | 13 °C | 3.77 h | Reduction of Wolbachia load | 0.09 µM | 1000 µM
CCCC(N)C(=O)NC1C(O)C(CO)OC1n1cnc2c(N)ncnc21 (stereo not shown) [Nva2AA, reference compound] | – | – | 1.79 kcal/mol | -5.94 kcal/mol | -7.73 kcal/mol | – | – | – | – | – | – | –
